# Tests used:
# [1] = biological target: beta adrenergic receptor (Cavia porcellus, UniProt H0W3H1); assay: Blockade of isoprenaline inotropic effect in electrically driven guinea pig left atrium; type: cell-based; settings: result in words
# [2] = 6-week application, daily dose of 60 mg/kg b.w., i.p.; cited from earlier work
# Sequence of beta adrenergic receptor (H0W3H1 1-470): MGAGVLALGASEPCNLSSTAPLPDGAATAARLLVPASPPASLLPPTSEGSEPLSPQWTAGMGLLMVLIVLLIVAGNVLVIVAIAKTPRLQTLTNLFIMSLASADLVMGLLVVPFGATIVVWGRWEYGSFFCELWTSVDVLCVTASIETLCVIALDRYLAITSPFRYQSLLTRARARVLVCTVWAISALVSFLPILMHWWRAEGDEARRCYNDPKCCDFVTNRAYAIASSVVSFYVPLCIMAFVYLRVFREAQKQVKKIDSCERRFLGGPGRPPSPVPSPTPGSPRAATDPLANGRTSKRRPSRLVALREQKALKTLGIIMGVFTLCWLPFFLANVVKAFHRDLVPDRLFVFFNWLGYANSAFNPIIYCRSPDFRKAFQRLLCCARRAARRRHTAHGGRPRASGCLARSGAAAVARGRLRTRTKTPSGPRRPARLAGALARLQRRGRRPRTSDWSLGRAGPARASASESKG
SMILES,blockade of the isoprenaline inotropic response [1],direct cardiac effect (heart rate decrease) [2] [%]
"COC(=O)C12CCC(C)C(C)C1C1=CCC3C4(C)CCC(OCC(O)CNC(C)C)C(C)(C)C4CCC3(C)C1(C)CC2 (stereo not drawn) [Compound 3a, methyl 3-β-[2-hydroxy-3-(isopropylamino)propoxy]-urs-12-en-28-oate]",blocked the isoprenaline inotropic response almost fully,
"COC(=O)C12CCC(C)C(C)C1C1=CCC3C4(C)CCC(OCC(O)CNCC(C)C)C(C)(C)C4CCC3(C)C1(C)CC2 (stereo not drawn) [Compound 3b, methyl-3-β-[2-hydroxy-3-(isobutylamino)propoxy]-urs-12-en-28-oate]",blocked the isoprenaline inotropic response almost fully,
CC1(C)CC[C@]2(C(=O)O)CC[C@]3(C)C(=CC[C@@H]4[C@@]5(C)CC[C@H](O)C(C)(C)[C@@H]5CC[C@]43C)[C@@H]2C1 [Oleanolic],,34

# From US20190352329A1, “BETA-ADRENERGIC BLOCKING COMPOUND” (KING SAUD UNIVERSITY, priority 2018, published 2019)
